Molecules are shown by their SMILES.

The target of test [1] is T1, PI3Kβ (Homo sapiens, UniProt P42338).
T1 construct: N-terminal His6-tagged recombinant full-length human p110β; His6 (N); purchased Millipore 14-603; host or cells: baculovirus infected Sf21 insect cells
The test can be described thus: PI3Kβ kinase assay (HTRF based PI3K inhibition assay). The test is classed as biochemical. The settings on record: for inhibition at 0.93 µM: 0.93 μM compound, read-out: PI3K beta average % Inhibition at 0.93 μM; for IC50: complex of human p110β and human p85α, 10 μM ATP, 10 μM PIP2, read-out: average IC50 in the PI3K beta biochemical assay; for PI3K beta average IC50/ PI3K alpha average IC50: ratio of PI3K beta IC50 to PI3K alpha IC50 (A2 and A1). From the text:
Determination of % Inhibition and IC50 Values of Compounds in PI3Kβ Kinase Assay
PI3Kβ inhibitory activity of compounds of the present invention was quantified employing the HTRF based PI3K inhibition assay as described below.
(§1) As reagents for the kinase reaction itself and the quantification of the reaction product, the PI3-Kinase HTRF Assay kit from Millipore (#33-017) was used. With this kit the phosphatidylinositol 3,4,5-trisphosphate (PIP3) generated in the kinase reaction is detected by displacement of a biotinylated ligand from an energy transfer complex consisting of a Europium-labeled anti-GST monoclonal antibody, a GST-tagged PH domain, biotinylated PIP3 and Streptavidin-Allophycocyanin (APC).
(§2) For the assay 50 nL of a 80-fold concentrated solution of the test compound in DMSO was pipetted into a black low volume 384-well microtiter plate (Greiner Bio-One, Frickenhausen, Germany), 3 μl of a solution of PI3Kβ and phosphatidylinositol-4,5-bisphosphate (PIP2, 13.8 μM=>final conc. in 4 μl reaction volume=10 μM) in 1× reaction buffer (exact composition not disclosed by the vendor) were added and the mixture was incubated for 15 min at 22° C. to allow pre-binding of the test compounds to the enzyme before the start of the kinase reaction. The amount of PI3Kβ was chosen to have the enzyme reaction in the linear range and depended on the activity of the individual lot, typical concentrations in assay were in the range of 120 ng/mL. Then the kinase reaction was started by the addition of 1 μL of a solution of adenosine triphosphate (ATP, 40 μM=>final conc. in the 4 μl assay volume is 10 μM) in reaction buffer and the resulting mixture was incubated for a reaction time of 20 min at 22° C.
(§3) The reaction was stopped by the addition of 1 μL of an stop solution (containing the biotinylated PIP3 used as a tracer). Then 1 μL detection mix (containing a Europium-labeled anti-GST monoclonal antibody, a GST-tagged PH domain, and Streptavidin-Allophycocyanin) was added and resulting mixture was incubated for 3 h at 22° C. to allow the formation of complexes between the detection reagents and either the PIP3 generated in the kinase reaction, or the biotinylated PIP3 added with the stop solution. Subsequently the amount of energy transfer complex consisting of a Europium-labeled anti-GST monoclonal antibody, a GST-tagged PH domain, biotinylated PIP3 and Streptavidin-Allophycocyanin (APC) was evaluated by measurement of the resonance energy transfer from the Europium-labeled anti-GST monoclonal antibody to the Streptavidin-Allophycocyanin. Therefore, the fluorescence emissions at 620 nm and 665 nm after excitation at 350 nm were measured using a TR-FRET reader, e.g., a Pherastar (BMG Labtechnologies, Offenburg, Germany) or a Viewlux (Perkin-Elmer). The ratio of the emissions at 665 nm and at 622 nm were taken as the measure for the amount of biotinylated PIP3 bound to the GST-tagged PH domain, which is negatively correlated with the amount of PIP3 generated.
A general note: Time-resolved FRET reads energy transfer from a long-lived donor to a nearby acceptor.

For test [2], the target named is T2, PI3Kα (Homo sapiens, UniProt P42336).
T2 construct: N-terminal His6-tagged recombinant full-length human p110α; His6 (N); purchased Millipore 14-602; host or cells: baculovirus infected Sf21 insect cells
The test can be described thus: PI3Kα kinase assay (HTRF-based PI3K inhibition assay). The test is classed as biochemical. The settings on record: for inhibition at 0.93 µM: 0.93 μM compound, read-out: PI3K alpha average % Inhibition at 0.93 μM; for IC50: complex of human p110α and human p85α, 10 μM ATP, 10 μM PIP2, read-out: average IC50 in the PI3K alpha biochemical assay.
From the text: Determination of % Inhibition and IC50 Values of Compounds in PI3Kα Kinase Assay
PI3Kα inhibitory activity of compounds of the present invention was quantified employing the HTRF-based PI3K inhibition assay as described below.
as §1
as §2, with “Germany), 3 μL of a” for “Germany), 3 μl of a”, “solution of PI3Kα and phosphatidylinositol-4,5-bisphosphate” for “solution of PI3Kβ and phosphatidylinositol-4,5-bisphosphate”, “amount of PI3Kα was chosen” for “amount of PI3Kβ was chosen”, “range of 90 ng/mL. Then” for “range of 120 ng/mL. Then”, “the 4 μL assay volume” for “the 4 μl assay volume”
as §3, with “as a tracer), then 1 μL” for “as a tracer). Then 1 μL”, “was incubated 3 h” for “was incubated for 3 h”, “stop solution. Subsequently, the amount” for “stop solution. Subsequently the amount”, “[…] was taken as” for “622 nm were taken as”, “PIP3 generated. […] Normally test compounds were tested on the same microtiter plate at 10 different concentrations in the range of 25 μM to 1.3 nM (25 μM, 8.3 μM, 2.8 μM, 0.93 μM, 0.31 μM, 103 nM, 34 nM, 11 nM, 3.8 nM and 1.3 nM, a dilution series prepared before the assay at the level of the 80-fold conc. stock solutions by serial 1:3 dilutions) in duplicate values for each concentration and […] values were calculated by a 4-parameter fit using in-house software.” for “PIP3 generated.”

T2 sequence (P42336 whole entry): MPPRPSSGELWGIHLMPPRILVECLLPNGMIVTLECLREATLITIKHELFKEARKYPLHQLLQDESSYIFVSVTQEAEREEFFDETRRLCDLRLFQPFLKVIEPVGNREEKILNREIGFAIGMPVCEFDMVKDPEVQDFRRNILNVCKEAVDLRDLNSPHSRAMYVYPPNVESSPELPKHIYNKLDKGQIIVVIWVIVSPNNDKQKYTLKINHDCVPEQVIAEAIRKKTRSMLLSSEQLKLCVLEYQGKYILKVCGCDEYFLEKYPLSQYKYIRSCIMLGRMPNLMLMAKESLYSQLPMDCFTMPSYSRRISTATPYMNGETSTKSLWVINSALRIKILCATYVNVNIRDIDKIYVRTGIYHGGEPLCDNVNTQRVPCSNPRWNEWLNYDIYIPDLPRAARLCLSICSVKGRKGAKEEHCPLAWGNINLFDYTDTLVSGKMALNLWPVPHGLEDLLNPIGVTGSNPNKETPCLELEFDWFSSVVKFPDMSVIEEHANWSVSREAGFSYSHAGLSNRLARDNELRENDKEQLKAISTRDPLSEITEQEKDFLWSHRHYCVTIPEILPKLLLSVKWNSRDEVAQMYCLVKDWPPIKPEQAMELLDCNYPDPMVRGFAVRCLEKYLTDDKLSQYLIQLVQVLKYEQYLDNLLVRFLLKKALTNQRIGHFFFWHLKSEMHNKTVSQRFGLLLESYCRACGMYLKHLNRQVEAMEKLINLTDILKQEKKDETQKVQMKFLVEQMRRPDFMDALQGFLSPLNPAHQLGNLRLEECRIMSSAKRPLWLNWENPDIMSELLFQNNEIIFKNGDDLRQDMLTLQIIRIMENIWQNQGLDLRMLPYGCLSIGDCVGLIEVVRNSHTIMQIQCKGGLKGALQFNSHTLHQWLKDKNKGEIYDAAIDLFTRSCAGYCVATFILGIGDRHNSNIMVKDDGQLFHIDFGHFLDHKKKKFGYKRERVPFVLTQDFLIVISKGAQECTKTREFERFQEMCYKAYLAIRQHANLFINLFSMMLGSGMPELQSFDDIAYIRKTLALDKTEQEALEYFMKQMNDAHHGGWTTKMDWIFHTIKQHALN
T2 sequence (P27986 whole entry partner): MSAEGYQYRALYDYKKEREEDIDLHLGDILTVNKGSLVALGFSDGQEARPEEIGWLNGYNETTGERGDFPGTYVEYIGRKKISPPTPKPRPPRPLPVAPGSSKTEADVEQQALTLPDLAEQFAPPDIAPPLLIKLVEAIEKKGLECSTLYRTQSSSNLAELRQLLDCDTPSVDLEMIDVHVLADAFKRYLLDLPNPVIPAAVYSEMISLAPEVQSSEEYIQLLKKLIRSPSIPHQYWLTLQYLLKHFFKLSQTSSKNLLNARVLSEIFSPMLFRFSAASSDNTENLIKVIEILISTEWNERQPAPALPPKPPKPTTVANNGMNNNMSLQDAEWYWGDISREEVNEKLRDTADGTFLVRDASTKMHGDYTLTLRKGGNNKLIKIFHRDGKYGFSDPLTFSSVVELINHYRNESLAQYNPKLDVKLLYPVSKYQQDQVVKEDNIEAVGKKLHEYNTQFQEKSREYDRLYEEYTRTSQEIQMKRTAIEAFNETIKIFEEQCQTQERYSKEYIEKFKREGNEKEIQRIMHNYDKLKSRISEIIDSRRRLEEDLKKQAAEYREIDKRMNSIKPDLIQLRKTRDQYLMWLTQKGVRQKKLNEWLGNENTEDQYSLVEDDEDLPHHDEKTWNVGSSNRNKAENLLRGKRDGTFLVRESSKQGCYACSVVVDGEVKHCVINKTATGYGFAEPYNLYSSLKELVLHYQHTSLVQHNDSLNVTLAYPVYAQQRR
T1 sequence (P42338 whole entry): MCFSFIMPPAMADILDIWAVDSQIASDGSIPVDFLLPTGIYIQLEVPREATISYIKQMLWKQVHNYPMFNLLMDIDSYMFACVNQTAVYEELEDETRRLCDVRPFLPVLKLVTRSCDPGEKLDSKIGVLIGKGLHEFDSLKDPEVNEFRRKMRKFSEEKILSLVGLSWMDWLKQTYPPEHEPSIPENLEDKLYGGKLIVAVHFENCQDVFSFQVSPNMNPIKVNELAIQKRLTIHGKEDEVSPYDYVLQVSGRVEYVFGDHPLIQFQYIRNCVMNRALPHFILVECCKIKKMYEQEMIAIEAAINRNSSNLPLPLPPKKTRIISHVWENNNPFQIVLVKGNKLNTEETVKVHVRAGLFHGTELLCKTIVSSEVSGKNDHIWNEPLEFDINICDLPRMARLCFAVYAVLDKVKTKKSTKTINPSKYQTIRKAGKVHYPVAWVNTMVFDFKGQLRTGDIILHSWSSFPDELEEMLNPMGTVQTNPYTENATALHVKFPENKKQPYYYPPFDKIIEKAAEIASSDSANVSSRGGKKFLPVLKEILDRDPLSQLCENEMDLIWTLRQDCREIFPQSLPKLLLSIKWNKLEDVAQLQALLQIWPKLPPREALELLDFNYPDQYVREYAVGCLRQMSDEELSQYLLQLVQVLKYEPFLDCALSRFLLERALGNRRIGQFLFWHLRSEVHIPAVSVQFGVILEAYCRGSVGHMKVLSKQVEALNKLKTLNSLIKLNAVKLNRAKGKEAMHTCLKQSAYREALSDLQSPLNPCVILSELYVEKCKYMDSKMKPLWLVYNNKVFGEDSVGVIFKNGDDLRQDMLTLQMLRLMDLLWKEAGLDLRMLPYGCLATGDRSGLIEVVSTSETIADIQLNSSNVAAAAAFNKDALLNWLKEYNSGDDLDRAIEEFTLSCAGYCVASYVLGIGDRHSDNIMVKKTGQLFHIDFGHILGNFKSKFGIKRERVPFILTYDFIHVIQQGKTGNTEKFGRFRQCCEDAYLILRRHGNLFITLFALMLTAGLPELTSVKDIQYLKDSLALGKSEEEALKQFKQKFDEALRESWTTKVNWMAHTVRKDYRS
T1 sequence (P27986 whole entry partner): as the sequence (P27986 whole entry partner) above

In general, inhibition refers to the change of the read-out against control, counted positive when it falls. One may read the IC50 as the concentration that inhibits the measured activity by half. Regarding `C[C@@H]1CN(C[C@@](C)(O)COc2ccc3c(c2OCCc2ccc(F)cc2)N=C(NC(=O)c2cccnc2)N2CCN=C32)C[C@H](C)O1` (relative stereo) [Example 12, rel-N-{8-({(2R)-3-[(2R,6S)-2,6-Dimethylmorpholin-4-yl]-2-hydroxy-2-methylpropyl}oxy)-7-[2-(4-fluorophenyl)ethoxy]-2,3-dihydroimidazo[1,2-c]quinazolin-5-yl}pyridine-3-carboxamide], in test [1], the inhibition at 0.93 µM turned out to be 100%, the IC50 was > 0.05 µM and the “PI3K beta average IC50/ PI3K alpha average IC50” value turned out to be 3.69. Also, in test [2], the inhibition at 0.93 µM amounted to 104% and the IC50 lay within 0.01 to 0.05 µM.
On to `COc1c(OC[C@H](O)CN2CCOCC2)ccc2c1N=C(NC(=O)c1cccnc1)N1CCN=C21` [Example 2, N-(8-{[(2R)-2-hydroxy-3-(morpholin-4-yl)propyl]oxy}-7-methoxy-2,3-dihydroimidazo[1,2-c]quinazolin-5-yl)pyridine-3-carboxamide], for which, in test [1], the inhibition at 0.93 µM was 94.4%.
For `CC(C)N(C[C@@H](O)COc1ccc2c(c1OCCc1ccc(F)cc1)N=C(NC(=O)c1cccnc1)N1CCN=C21)C(C)C` [Example 7, N-(8-{[(2R)-3-(dipropan-2-ylamino)-2-hydroxypropyl]oxy}-7-[2-(4-fluorophenyl)ethoxy]-2,3-dihydroimidazo[1,2-c]quinazolin-5-yl)pyridine-3-carboxamide], in test [1], the inhibition at 0.93 µM was 90%, the IC50 is 0.01 to 0.05 µM and the “PI3K beta average IC50/ PI3K alpha average IC50” value stood at 2.78. In test [2], the inhibition at 0.93 µM turned out to be 91.5% and the IC50 is < 0.01 µM.
For `C[C@@H]1CN(C[C@@H](O)COc2ccc3c(c2OCCc2ccc(F)cc2)N=C(NC(=O)c2cccnc2)N2CCN=C32)C[C@H](C)O1` [Example 8, N-{8-({(2R)-3-[(2R,6S)-2,6-Dimethylmorpholin-4-yl]-2-hydroxypropyl}oxy)-7-[2-(4-fluorophenyl)ethoxy]-2,3-dihydroimidazo[1,2-c]quinazolin-5-yl}pyridine-3-carboxamide], in that order: 96.7%, 0.01 to 0.05 µM, 2.28, 99.9% and 0.01 to 0.05 µM.
For `O=C(NC1=Nc2c(ccc(OCC(O)CN3CCOCC3)c2OCCc2ccc(F)cc2)C2=NCCN12)c1cccnc1` (stereo not shown) [Example 9, N-{7-[2-(4-Fluorophenyl)ethoxy]-8-[2-hydroxy-3-(morpholin-4-yl)propoxy]-2,3-dihydroimidazo[1,2-c]quinazolin-5-yl}pyridine-3-carboxamide], in test [1], the inhibition at 0.93 µM is 102%, the IC50 is < 0.01 µM and the “PI3K beta average IC50/ PI3K alpha average IC50” value is 0.63. For the same compound, in test [2], the inhibition at 0.93 µM came out at 98.8% and the IC50 lay within 0.01 to 0.05 µM.
On the same counts, the results for `COc1c(OC[C@](C)(O)CN2C[C@@H](C)O[C@@H](C)C2)ccc2c1N=C(NC(=O)c1cccnc1)N1CCN=C21` (relative stereo) [Example 10, rel-N-[8-({(2R)-3-[(2R,6S)-2,6-Dimethylmorpholin-4-yl]-2-hydroxy-2-methylpropyl}oxy)-7-methoxy-2,3-dihydroimidazo[1,2-c]quinazolin-5-yl]pyridine-3-carboxamide] are 81.6%, > 0.05 µM, 8.95, 93.2% and < 0.01 µM.
On the same counts, the results for `C[C@@H]1CN(C[C@@](C)(O)COc2ccc3c(c2OCCc2ccc(F)cc2)N=C(NC(=O)c2cnc(N)nc2)N2CCN=C32)C[C@H](C)O1` (relative stereo) [Example 11, rel-2-Amino-N-{8-({(2R)-3-[(2R,6S)-2,6-dimethylmorpholin-4-yl]-2-hydroxy-2-methylpropyl}oxy)-7-[2-(4-fluorophenyl)ethoxy]-2,3-dihydroimidazo[1,2-c]quinazolin-5-yl}pyrimidine-5-carboxamide] are 95.3%, 0.01 to 0.05 µM, 9.66, 109% and < 0.01 µM.

Values taken from US9730943B2, “Alkoxy-substituted 2,3-dihydroimidazo[1,2-C]quinazolines” (BAYER INTELLECTUAL PROPERTY GMBH, priority 2010, dated 2017).
